Data reported in ChEMBL document CHEMBL1681632, “2-(4-carbonylphenyl)benzoxazole inhibitors of CETP: scaffold design and advancement in HDLc-raising efficacy” (Bioorg Med Chem Lett, 2011).

Target: T1, Cholesteryl ester transfer protein (Homo sapiens, UniProt P11597)
T1 sequence (P11597 whole entry): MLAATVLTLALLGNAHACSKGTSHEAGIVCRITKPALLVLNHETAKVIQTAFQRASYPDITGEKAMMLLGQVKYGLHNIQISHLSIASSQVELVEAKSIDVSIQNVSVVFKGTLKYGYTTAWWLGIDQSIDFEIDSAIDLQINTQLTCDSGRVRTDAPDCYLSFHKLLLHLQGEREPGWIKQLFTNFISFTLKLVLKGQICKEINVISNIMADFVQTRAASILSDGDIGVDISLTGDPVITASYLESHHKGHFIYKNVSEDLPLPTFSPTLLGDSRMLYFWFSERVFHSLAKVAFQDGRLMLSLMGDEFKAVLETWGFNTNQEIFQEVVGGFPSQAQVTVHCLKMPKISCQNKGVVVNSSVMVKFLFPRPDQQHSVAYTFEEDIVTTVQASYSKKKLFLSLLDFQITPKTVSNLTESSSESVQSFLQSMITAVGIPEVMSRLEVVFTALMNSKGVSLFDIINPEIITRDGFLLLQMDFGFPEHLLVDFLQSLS
Test: Inhibition of CETP

| SMILES | IC50 [nM] |
| --- | --- |
| C=C(C)c1ccc(N2CCC(CNC(=O)c3ccc(-c4nc5cc(C#N)cc(C(C)C)c5o4)cc3)CC2)nc1 | 229 |
| CC(C)COc1ccccc1-c1ccc(N2CCC(CNC(=O)c3ccc(-c4nc5cc(C#N)cc(C(C)C)c5o4)cc3)CC2)nc1 | 31 |
| CC(C)c1cc(C#N)cc2nc(-c3ccc(C(=O)NCC4CCN(c5ccc(-c6ccccc6)cn5)CC4)cc3)oc12 | 43 |
| CC(C)Oc1ccccc1-c1ccc(N2CCC(CNC(=O)c3ccc(-c4nc5cc(C#N)cc(C(C)C)c5o4)cc3)CC2)nc1 | 29 |
| CC(C)Oc1ccc(F)cc1-c1ccc(N2CCC(CNC(=O)c3ccc(-c4nc5cc(C#N)cc(C(C)C)c5o4)cc3)CC2)nc1 | 13 |
| CC(C)c1cc(C#N)cc2nc(-c3ccc(C(=O)NCC4CCN(c5cccc(C(=O)O)n5)CC4)cc3)oc12 | > 10000 |
| CC(C)c1cc(C#N)cc2nc(-c3ccc(C(=O)NCC4CCN(c5ccc([N+](=O)[O-])cn5)CC4)cc3)oc12 | > 10000 |
| COC(Cc1ccc(-c2nc3cc(C#N)cc(C)c3o2)cc1)CN1CCN(c2ccc(C(F)(F)F)cc2)CC1 (stereo not given) | 8940 |
| CC(C)c1cc(C#N)cc2nc(-c3ccc(C(=O)NCC4CCN(c5ccc(C(F)(F)F)cn5)CC4)cc3)oc12 | 40 |
| N#Cc1cc(C2CC2)c2oc(-c3ccc(C(=O)NCC4CCN(c5ccc(C(F)(F)F)cn5)CC4)cc3)nc2c1 | 243 |
| Cc1cc(C#N)cc2nc(-c3ccc(C(=O)N(C)CC4CCN(c5ccc(C(F)(F)F)cc5)CC4)cc3)oc12 | 2610 |
| Cc1cc(C#N)cc2nc(-c3ccc(C(=O)N4CCN(c5ccc(C(F)(F)F)cc5)CC4)cc3)oc12 | 4030 |
| COc1cccc(N2CCC(CNC(=O)c3ccc(-c4nc5cc(C#N)cc(C(C)C)c5o4)cc3)CC2)n1 | 110 |
| CC(C)c1cc(C#N)cc2nc(-c3ccc(C(=O)NCC4CCN(c5ccc(-c6cc(C(F)(F)F)ccc6OCc6ccccc6)cn5)CC4)cc3)oc12 | 413 |
| Cc1cc(C#N)cc2nc(-c3ccc(C(O)CCN4CCN(c5ccc(C(F)(F)F)cc5)CC4)cc3)oc12 (stereo not given) | 2250 |
| Cc1cc(C#N)cc2nc(-c3ccc(CC(=O)CN4CCN(c5ccc(C(F)(F)F)cc5)CC4)cc3)oc12 | 5740 |
| CC(C)(C)c1cc(C#N)cc2nc(-c3ccc(C(=O)NCC4CCN(c5ccc(C(F)(F)F)cn5)CC4)cc3)oc12 | 198 |
| Cc1ccc(OC(C)C)c(-c2ccc(N3CCC(CNC(=O)c4ccc(-c5nc6cc(C#N)cc(C(C)C)c6o5)cc4)CC3)nc2)c1 | 22 |
| Cc1cc(C#N)cc2nc(-c3ccc(CC(O)CN4CCN(c5ccc(C(F)(F)F)cc5)CC4)cc3)oc12 (stereo not given) | 874 |
| Cc1cc(C#N)cc2nc(-c3ccc(OCCN4CCN(c5ccc(C(F)(F)F)cc5)CC4)cc3)oc12 | 4550 |
| Cc1cc(C#N)cc2nc(-c3ccc(NCC(O)CN4CCN(c5ccc(C(F)(F)F)cc5)CC4)cc3)oc12 (stereo not given) | 18800 |
| Cc1cc(C#N)cc2nc(-c3ccc(C(=O)NCC4CCN(c5ccc(C(F)(F)F)cc5)CC4)cc3)oc12 | 300 |

| SMILES | IC50 [nM] |
| --- | --- |
| CC(C)c1cc(C#N)cc2nc(-c3ccc(C(=O)NCC4CCN(c5cccc(C(F)(F)F)n5)CC4)cc3)oc12 | 37 |
| CC(C)c1cc(C#N)cc2nc(-c3ccc(C(=O)NCC4CCN(c5ccccn5)CC4)cc3)oc12 | 114 |
| CC(C)c1cc(C#N)cc2nc(-c3ccc(C(=O)NCC4CCN(c5cc(C(F)(F)F)ccn5)CC4)cc3)oc12 | 61 |
| Cc1cc(C#N)cc2nc(-c3ccc(N4CCC(N5CCN(c6ccc(C(F)(F)F)cc6)CC5)C4=O)cc3)oc12 (stereo not given) | 2740 |
| COc1cc(F)c(C(C)C)cc1-c1ccc(N2CCC(CNC(=O)c3ccc(-c4nc5cc(C#N)cc(C(C)C)c5o4)cc3)CC2)nc1 | 24 |
| CC(C)Oc1ccc(C(F)(F)F)cc1-c1ccc(N2CCC(CNC(=O)c3ccc(-c4nc5cc(C#N)cc(C(C)C)c5o4)cc3)CC2)nc1 | 28 |
| N#Cc1cc(C(F)(F)F)c2oc(-c3ccc(C(=O)NCC4CCN(c5ccc(C(F)(F)F)cn5)CC4)cc3)nc2c1 | 3190 |
| Cc1cccc(-c2ccc(N3CCC(CNC(=O)c4ccc(-c5nc6cc(C#N)cc(C(C)C)c6o5)cc4)CC3)nc2)c1 | 39 |
| CC(C)c1ccccc1-c1ccc(N2CCC(CNC(=O)c3ccc(-c4nc5cc(C#N)cc(C(C)C)c5o4)cc3)CC2)nc1 | 19 |
| Cc1cc(C#N)cc2nc(-c3ccc(C#CCN4CCN(c5ccc(C(F)(F)F)cc5)CC4)cc3)oc12 | 2170 |
| COC(=O)c1cccc(N2CCC(CNC(=O)c3ccc(-c4nc5cc(C#N)cc(C(C)C)c5o4)cc3)CC2)n1 | 306 |
| Cc1cc(C#N)cc2nc(-c3ccc(C(=O)NCCC4CCN(c5ccc(C(F)(F)F)cc5)CC4)cc3)oc12 | 11600 |
| CC(C)c1cc(C#N)cc2nc(-c3ccc(C(=O)NCC4CCN(c5nccc(C(F)(F)F)n5)CC4)cc3)oc12 | 22 |
| Cc1cc(C#N)cc2nc(-c3ccc(NC(=O)CN4CCN(c5ccc(C(F)(F)F)cn5)CC4)cc3)oc12 | 15 |
| Cc1cc(C#N)cc2nc(-c3ccc(C(=O)CCN4CCN(c5ccc(C(F)(F)F)cc5)CC4)cc3)oc12 | 2050 |
| C=C(C)c1cc(C#N)cc2nc(-c3ccc(C(=O)NCC4CCN(c5ccc(C(F)(F)F)cn5)CC4)cc3)oc12 | 131 |
| COC(=O)c1ccc(N2CCC(CNC(=O)c3ccc(-c4nc5cc(C#N)cc(C(C)C)c5o4)cc3)CC2)nc1 | 114 |
| CC(C)c1cc(C#N)cc2nc(-c3ccc(C(=O)NCC4CCN(c5ccc(Br)cn5)CC4)cc3)oc12 | 223 |
| Cc1cc(C#N)cc2nc(-c3ccc(CCCN4CCN(c5ccc(C(F)(F)F)cc5)CC4)cc3)oc12 | 975 |
| Cc1ccc(-c2ccc(N3CCC(CNC(=O)c4ccc(-c5nc6cc(C#N)cc(C(C)C)c6o5)cc4)CC3)nc2)cc1 | 48 |
| COc1cccc(Cl)c1-c1ccc(N2CCC(CNC(=O)c3ccc(-c4nc5cc(C#N)cc(C(C)C)c5o4)cc3)CC2)nc1 | 47 |

Test system: Mus musculus
Test: Antiatherogenic activity in transgenic mouse PD model assessed as rise in HDL-cholesterol level at 10 mg/kg
Format: functional

| SMILES | Activity [mg/dL] |
| --- | --- |
| CC(C)c1cc(C#N)cc2nc(-c3ccc(C(=O)NCC4CCN(c5ccc(-c6ccccc6)cn5)CC4)cc3)oc12 | 22 |
| CC(C)Oc1ccc(F)cc1-c1ccc(N2CCC(CNC(=O)c3ccc(-c4nc5cc(C#N)cc(C(C)C)c5o4)cc3)CC2)nc1 | 24 |
| CC(C)c1cc(C#N)cc2nc(-c3ccc(C(=O)NCC4CCN(c5ccc(C(F)(F)F)cn5)CC4)cc3)oc12 | 16 |
| Cc1ccc(OC(C)C)c(-c2ccc(N3CCC(CNC(=O)c4ccc(-c5nc6cc(C#N)cc(C(C)C)c6o5)cc4)CC3)nc2)c1 | 28 |
| Cc1cc(C#N)cc2nc(-c3ccc(NC(=O)CN4CCN(c5ccc(C(F)(F)F)cc5)CC4)cc3)oc12 | 24 |
| CC(C)c1cc(C#N)cc2nc(-c3ccc(C(=O)NCC4CCN(c5nccc(C(F)(F)F)n5)CC4)cc3)oc12 | 7 |
| Cc1cc(C#N)cc2nc(-c3ccc(NC(=O)CN4CCN(c5ccc(C(F)(F)F)cn5)CC4)cc3)oc12 | 21 |
